# Patent US9511091B2, “Rare earth metal compounds, methods of making, and methods of using the same” (Spectrum Pharmaceuticals, Inc., priority 2002, dated 2016)
# What was measured:
# [1] = reactivity with respect to phosphate: phosphate removal from pH 3 Na2HPO4/HCl stock solution; type: binding; conditions: for rate of removal of phosphate compared with LaOCl of Example 1: FIG. 14, pH 3; for Initial 1st order rate constant k1: calculated from the experimental points for the first minute of the reaction, pH 3; for Fraction of PO4 remaining after 10 min: pH 3 stock solution, La 3 times the stoichiometric amount
# Description: A desirable lanthanum carbonate hydroxide is LaCO3OH. […] To determine the reactivity of the lanthanum carbonate hydroxide compound with respect to phosphate, the following procedure was used. A stock solution containing 13.75 g/l of anhydrous Na2HPO4 and 8.5 g/l of HCl is prepared. The stock solution is adjusted to pH 3 by the addition of concentrated HCl. 100 ml of the stock solution is placed in a beaker with a stirring bar. A sample of lanthanum carbonate hydroxide powder is added to the solution. The amount of lanthanum carbonate hydroxide powder is such that the amount of La in suspension is 3 times the stoichiometric amount needed to react completely with the phosphate. Samples of the suspension are taken at intervals, through a filter that separated all solids from the liquid. The liquid sample is analyzed for phosphorous.
# (§1) To determine the reactivity of the lanthanum compound with respect to phosphate, the following test was conducted. A stock solution containing 13.75 g/l of anhydrous Na2HPO4 and 8.5 g/l of HCl was prepared. The stock solution was adjusted to pH 3 by the addition of concentrated HCl. An amount of 100 ml of the stock solution was placed in a beaker with a stirring bar. The lanthanum oxychloride from above was added to the solution to form a suspension. The amount of lanthanum oxychloride was such that the amount of La in suspension was 3 times the stoichiometric amount needed to react completely with the phosphate. Samples of the suspension were taken at time intervals, through a filter that separated all solids from the liquid. The liquid sample was analyzed for phosphorous.
# as §1, with “Lanthanum carbonate hydroxide powder made as described” for “The lanthanum oxychloride from”, “solution.” for “solution to form a suspension.”, “carbonate hydroxide powder” for “oxychloride”, “intervals” for “intervals,”
# (§2) To determine the reactivity of this lanthanum compound with respect to phosphate, the following test was conducted. A stock solution containing 13.75 g/l of anhydrous Na2HPO4 and 8.5 g/l of HCl was prepared. The stock solution was adjusted to pH 3 by the addition of concentrated HCl. An amount of 100 ml of the stock solution was placed in a beaker with a stirring bar. Anhydrous lanthanum oxycarbonate made as described above, was added to the solution. The amount of anhydrous lanthanum oxycarbonate was such that the amount of La in suspension was 3 times the stoichiometric amount needed to react completely with the phosphate. Samples of the suspension were taken at intervals, through a filter that separated all solids from the liquid. The liquid sample was analyzed for phosphorous.
# as §2, with “reactivity of the lanthanum compound” for “reactivity of this lanthanum compound”, “stirring bar. La2CO5 powder, made as” for “stirring bar. Anhydrous lanthanum oxycarbonate made as”, “amount of lanthanum oxycarbonate” for “amount of anhydrous lanthanum oxycarbonate”, “taken at intervals through a” for “taken at intervals, through a”
# [2] = binding efficiency test, spiked water; conditions: 0.50 g in 30.0 ml spike solution, approximately 1 mg/l of each element, 18 hrs, room temperature
# Description: Tests were run to determine the binding efficiency of eight different compounds for twenty-four different elements.
# The main objective of the tests was to investigate the efficiency at which the compounds bind arsenic and selenium, in view of their use in removing those elements from drinking water. Twenty-one different anions were also included to explore further possibilities. The tests were performed as follows:
# The compounds given in Table 6 were added to water and a spike and were vigorously shaken at room temperature for 18 hrs. The samples were filtered and the filtrate analyzed for a suite of elements including Sb, As, Be, Cd, Ca, Cr, Co, Cu, Fe, Pb, Mg, Mn, Mo, Ni, Se, Tl, Ti, V, Zn, Al, Ba, B, Ag, and P.
# 2. Add standard solutions of the elements given above to make solutions containing approximately 1 mg/l of each element.
# 1. Weigh 0.50 g of each compound into its own 50 ml centrifuge tube.
# 2. Add 30.0 ml of the spike solution to each.
# 3. Cap tightly and shake vigorously for 18 hrs.
# 4. Filter solution from each centrifuge tube through 0.2 µm syringe filter. Obtain about 6 ml of filtrate.
# 5. Dilute filtrates 5:10 with 2% HNO3. Final Matrix is 1% HNO3.
# [3] = specific surface area by the BET method; type: physicochemical
# Description: For each sample, the surface area measured by the BET method and the fraction of phosphate remaining after 10 min of reaction have been tabulated. […] The rate constant k1 is defined by the following equation: d[PO4]/dt=−k1[PO4]
# An aqueous HCl solution having a volume of 334.75 ml and containing LaCl3 (lanthanum chloride) at a concentration of 29.2 wt % as La2O3 was added to a 4 liter beaker and heated to 80° C. with stirring. The initial pH of the LaCl3 solution was 2.2. Two hundred and sixty five ml of an aqueous solution containing 63.59 g of sodium carbonate (Na2CO3) was metered into the heated beaker using a small pump at a steady flow rate for 2 hours. Using a Buchner filtering apparatus fitted with filter paper the filtrate was separated from the white powder product. The filter cake was mixed four times, each with 2 liters of distilled water and filtered to wash away the NaCl formed during the reaction. The washed filter cake was placed into a convection oven set at 105° C. for 2 hours or until a stable weight was observed. […] The surface area of the product was determined by the BET method. The test was repeated 3 times and slightly different surface areas and different reaction rates were obtained as shown in Table 1.
# [4] = after 10 min, pH 3, La 3 times the stoichiometric amount
% Analyte Removed As [2] [%],% Analyte Removed Be [2] [%],% Analyte Removed Ca [2] [%],% Analyte Removed Cd [2] [%],% Analyte Removed Co [2] [%],% Analyte Removed Cr [2] [%],% Analyte Removed Cu [2] [%],% Analyte Removed Fe [2] [%],% Analyte Removed Mg [2] [%],% Analyte Removed Mn [2] [%],% Analyte Removed Pb [2] [%],% Analyte Removed Sb [2] [%],Compound,BET surface area [3] [m^2/g],Initial 1st order rate constant k1 [1] [min⁻¹],Fraction of PO4 remaining after 10 min [1],other results
76,89,0,46,28,100,88,100,0,28,99,86,"[O]=[La][Cl] [LaOCl, lanthanum oxychloride]",–,–,–,relationship between the amount of phosphate bound or absorbed and time ([1]; compared with commercial hydrated lanthanum carbonates): closer to linear
–,–,–,–,–,–,–,–,–,–,–,–,"O.O=C([O-])[O-].O=C([O-])[O-].O=C([O-])[O-].[La+3].[La+3] [Sample 10, La2(CO3)3•1H2O, reference compound]",2.9,0.094,0.790,rate of removal of phosphate compared with LaOCl of Example 1 [1]: faster at the beginning but slower after about 3 minutes
–,–,–,–,–,–,–,–,–,–,–,–,"O=C([O-])[O-].[La+3].[La+3].[O-2].[O-2] [Sample 5, La2O2CO3]",18,0.483,0.278,–
93,8,0,4,0,6,11,49,0,1,97,96,[O]=[Ti]=[O] [TiO2],–,–,–,% Analyte Removed As ([2]; listed as compound 6): most efficient
–,–,–,–,–,–,–,–,–,–,–,–,"O=C([O-])[O-].[La+3].[La+3].[O-2].[O-2] [Sample 6, La2CO5]",18.8,0.391,0.308,–
–,–,–,–,–,–,–,–,–,–,–,–,"O=C([O-])[O-].[La+3].[OH-] [Sample 2, LaCO3OH]",35.9,0.929,0.153,–
85,97,21,95,69,100,89,92,0,94,92,89,[La+3].[La+3].[O-2].[O-2].[O-2] [La2O3],–,–,–,–
–,–,–,–,–,–,–,–,–,–,–,–,"O=C([O-])[O-].[La+3].[OH-] [Sample 1, LaCO3OH]",41.3,0.949,0.130,–
–,–,–,–,–,–,–,–,–,–,–,–,"O=C([O-])[O-].[La+3].[La+3].[O-2].[O-2] [Sample 8, La2CO5]",11.9,0.434,0.483,–
–,–,–,–,–,–,–,–,–,–,–,–,"O=C([O-])[O-].[La+3].[OH-] [Sample 3, LaCO3OH]",38.8,0.837,0.171,–
–,–,–,–,–,–,–,–,–,–,–,–,"O=C([O-])[O-].[La+3].[La+3].[O-2].[O-2] [Sample 4, La2CO5]",25.6,0.545,0.275,–
–,–,–,–,–,–,–,–,–,–,–,–,"O=C([O-])[O-].[La+3].[La+3].[O-2].[O-2] [Sample 7, La2O2CO3]",16.5,0.36,0.327,–

Compound,% Analyte Removed As [2] [%],% Analyte Removed Be [2] [%],% Analyte Removed Ca [2] [%],% Analyte Removed Cd [2] [%],% Analyte Removed Co [2] [%],% Analyte Removed Cr [2] [%],% Analyte Removed Cu [2] [%],% Analyte Removed Fe [2] [%],% Analyte Removed Mg [2] [%],% Analyte Removed Mn [2] [%],% Analyte Removed Pb [2] [%],% Analyte Removed Sb [2] [%],BET surface area [3] [m^2/g],Initial 1st order rate constant k1 [1] [min⁻¹],Fraction of PO4 remaining after 10 min [1],other results
"O.O.O.O.O=C([O-])[O-].O=C([O-])[O-].O=C([O-])[O-].[La+3].[La+3] [La2(CO3)3•4H2O, reference compound]",25,41,28,37,20,94,0,56,0,20,90,84,–,–,–,"rate of removal of phosphate compared with LaOCl of Example 1 [1]: faster at the beginning but slower after about 3 minutes; capacity of phosphate removal (PO4 removed/g of La compound) [1, 4]: 45 mg PO4/g; phosphate in solution removed [1, 4]: 38%; % Analyte Removed As ([2]; listed as Commercial lanthanum carbonate): less effective"
"O=C([O-])[O-].O=C([O-])[O-].[Ti+4] [Ti(CO3)2, Ti carbonate]",93,100,99,100,99,99,98,100,79,100,98,96,–,–,–,% Analyte Removed As ([2]; listed as compound 5): most efficient
